# Test results: patent publication EP0942911B1, “BENZOPYRANOPYRROLE AND BENZOPYRANOPYRIDINE ALPHA-1 ADRENERGIC COMPOUNDS” (Abbott Laboratories, priority 1996, dated 1998)
# Counter-ions that a name gives are not always drawn.
# Columns and labels:
# α-1B adrenoreceptor = target: T1, α-1B adrenoreceptor (Rattus norvegicus, UniProt P15823); assay: cell-based; details: phenylephrine-induced contraction, Schild plot; for Kb: read-out: In Vitro Characterization (pA2) Rat Spleen (converted)
# T1 construct: from tissue; host or cells: rat spleen
# T1 sequence (P15823 1-515): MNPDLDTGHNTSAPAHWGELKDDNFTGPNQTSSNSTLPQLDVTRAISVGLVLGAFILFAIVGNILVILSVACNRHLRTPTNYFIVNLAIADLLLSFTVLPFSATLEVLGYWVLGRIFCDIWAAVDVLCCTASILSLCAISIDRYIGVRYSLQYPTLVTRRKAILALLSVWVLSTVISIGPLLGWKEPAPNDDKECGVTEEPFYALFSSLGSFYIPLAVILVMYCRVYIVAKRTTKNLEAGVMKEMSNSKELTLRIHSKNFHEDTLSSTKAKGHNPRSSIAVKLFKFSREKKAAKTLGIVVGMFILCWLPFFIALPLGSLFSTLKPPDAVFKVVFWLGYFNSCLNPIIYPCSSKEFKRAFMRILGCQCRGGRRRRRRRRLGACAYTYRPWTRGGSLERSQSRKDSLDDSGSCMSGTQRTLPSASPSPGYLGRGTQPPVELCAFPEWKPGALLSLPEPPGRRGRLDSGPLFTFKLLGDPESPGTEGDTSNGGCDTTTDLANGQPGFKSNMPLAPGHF
# How it was run: (§1)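 Phenylephrine dose-response curves for contraction were repeated against increasing test-agent concentrations. pA2 was derived by Schild plot [[…] vs log molarity of test agent].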
# α-1A adrenoreceptor [1] = assay: Functional antagonism: inhibition of PE-induced contraction of canine prostate strips (Schild plot); format: cell-based; details: phenylephrine-induced contraction
# Excerpt: Canine prostate strips were used in vitro as previously described (Hieble, J.P., Boyce, A.J. and Caine, M., Fed. Proc., 45: 2609-2614 (1986)), to determine antagonist potencies against phenylephrine-induced contractions.
# Functional assays indicative of pharmacologically defined α-1 adrenoreceptors were used to further characterize compounds. Inhibition of phenylephrine (PE)-induced contraction of canine prostate smooth muscle can be correlated with α-1A adrenoreceptor activation. […] For each of these models, agonist dose response curves were repeated against increasing concentrations of test agent to derive a Schild plot [log ([…]) against log (molarity of test agent)] to determine the pA2.
# α-1A adrenoreceptor [2] = target: T2, α-1A adrenoreceptor (Rattus norvegicus, UniProt P43140); assay: cell-based; details: phenylephrine-induced contraction, Schild plot; for Kb: read-out: In Vitro Characterization (pA2) Rat Vas (converted)
# T2 sequence (P43140 1-466): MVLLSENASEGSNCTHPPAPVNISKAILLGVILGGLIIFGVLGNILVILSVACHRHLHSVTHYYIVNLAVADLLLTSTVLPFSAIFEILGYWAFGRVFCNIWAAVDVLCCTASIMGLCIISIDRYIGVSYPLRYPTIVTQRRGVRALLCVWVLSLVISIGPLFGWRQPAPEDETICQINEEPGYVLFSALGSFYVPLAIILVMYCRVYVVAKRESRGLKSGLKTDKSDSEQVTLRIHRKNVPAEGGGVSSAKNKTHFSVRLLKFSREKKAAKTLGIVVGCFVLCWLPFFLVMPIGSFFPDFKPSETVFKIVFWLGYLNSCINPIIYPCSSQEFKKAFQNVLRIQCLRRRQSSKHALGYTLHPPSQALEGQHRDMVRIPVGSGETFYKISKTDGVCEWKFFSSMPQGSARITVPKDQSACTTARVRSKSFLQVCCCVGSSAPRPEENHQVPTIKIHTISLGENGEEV
# How it was run: as §1
# α-1 Adrenoceptors = assay: Functional antagonism in rat aorta (method not described); format: cell-based
compound,measurement,setting,value
"COc1cccc2c1OC[C@H]1CN(CCn3c(=O)[nH]c4c(sc5ccccc54)c3=O)C[C@@H]21.Cl (racemic) [Example 67, 3-[2-((±)-cis-6-Methoxy-1,2,3,3a,4,9b-hexahydro-[1]-benzopyrano[3,4-c]pyrrol-2-yl)ethyl]-[1]benzthieno[3,2-d]pyrimidine-2,4(1H,3H)-dione hydrochloride]",Kb,α-1B adrenoreceptor,148 nM
same,In Vitro Characterization (pA2) Dog Prostate,α-1A adrenoreceptor [1],7.33
"COc1cccc2c1[C@H]1CN(CCCCn3c(=O)[nH]c4c(sc5nccnc54)c3=O)C[C@@H]1CO2.Cl.Cl (racemic) [Example 74, 3-[4-((±)-trans-9-Methoxy-1,2,3,3a,4,9b-hexahydro-[1]-benzopyrano[3,4-c]pyrrol-2-yl)butyl]-pyrazino[2',3':4,5]thieno[3,2-d]pyrimidine-2,4(1H,3H)-dione dihydrochloride]",Kb,α-1A adrenoreceptor [2],0.794 nM
same,Kb,α-1B adrenoreceptor,6.46 nM
same,In Vitro Characterization (pA2) Dog Prostate,α-1A adrenoreceptor [1],9.03
"COc1cccc2c1[C@@H]1CCN(CCCCn3c(=O)[nH]c4c(sc5cccnc54)c3=O)C[C@H]1CO2 [Example 95, 3-[4-((4aS,10bR)-trans-10-Methoxy-1,3,4,4a,5,10b-hexahydro-2H-[1]-benzopyrano[3,4-c]pyrido-3-yl)butyl]-pyrido[2',3':4,5]thieno[3,2-d]pyrimidine-2.4(1H,3H)-dione dihydrochloride]",Kb,α-1B adrenoreceptor,19.1 nM
same,In Vitro Characterization (pA2) Dog Prostate,α-1A adrenoreceptor [1],8.58
"COc1cccc2c1[C@@H]1CN(CCCCn3c(=O)[nH]c4c(sc5ncc(-c6ccccc6)nc54)c3=O)C[C@H]1CO2 [Example 50, 3-[4-((3aS,9bR)-trans-9-Methoxy-1,2,3,3a,4,9b-hexahydro-[1]-benzopyrano[3,4-c]pyrrol-2-yl)butyl]-8-phenyl-pyrazino[2',3':4,5]thieno[3,2-d]pyrimidine-2,4(1H,3H)-dione hydrochloride]",Kb,α-1A adrenoreceptor [2],0.0447 nM
same,Kb,α-1B adrenoreceptor,316 nM
same,In Vitro Characterization (pA2) Dog Prostate,α-1A adrenoreceptor [1],8.45
"COc1cccc2c1[C@@H]1CN(CCCCn3c(=O)[nH]c4c(sc5ncc(Cl)nc54)c3=O)C[C@H]1CO2 [Example 13, 3-[4-((3aS,9bR)-trans-9-Methoxy-1,2,3,3a,4,9b-hexahydro-[1]-benzopyrano[3,4-c]pyrrol-2-yl)butyl]-8-chloro-pyrazino[2',3':4,5]thieno[3,2-d]pyrimidine-2,4(1H,3H)-dione hydrochloride]",Kb,α-1A adrenoreceptor [2],0.158 nM
same,Kb,α-1B adrenoreceptor,4.07 nM
same,In Vitro Characterization (pA2) Dog Prostate,α-1A adrenoreceptor [1],9.91
"COc1cccc2c1[C@@H]1CN(CCCCn3c(=O)[nH]c4c(sc5ncc(-c6ccccc6)nc54)c3=O)C[C@@H]1CO2 [Example 39, 3-[4-((3aR,9bR)-cis-9-Methoxy-1,2,3,3a,4,9b-hexahydro-[1]-benzopyrano[3,4-c]pyrrol-2-yl)butyl]-8-phenyl-pyrazino[2',3':4,5]thieno[3,2-d]pyrimidine-2,4(1H,3H)-dione hydrochloride]",Kb,α-1A adrenoreceptor [2],0.162 nM
same,Kb,α-1B adrenoreceptor,148 nM
same,In Vitro Characterization (pA2) Dog Prostate,α-1A adrenoreceptor [1],8.52
"COc1ccc2sc3c(=O)n(CCCCN4C[C@H]5COc6cccc(OC)c6[C@@H]5C4)c(=O)[nH]c3c2n1 [Example 26, 3-[4-((3aS,9bR)-trans-9-Methoxy-1,2,3,3a,4,9b-hexahydro-[1]-benzopyrano[3,4-c]pyrrol-2-yl)butyl]-8-methoxy-pyrido[2',3':4,5]thieno[3,2-d]pyrimidine-2,4(1H,3H)-dione hydrochloride]",Kb,α-1A adrenoreceptor [2],0.0457 nM
same,Kb,α-1B adrenoreceptor,3.16 nM
same,In Vitro Characterization (pA2) Dog Prostate,α-1A adrenoreceptor [1],9.15
"3-[4-((3aR,9bR)-cis-9-Methoxy-1,2,3,3a,4,9b-hexahydro-[1]-benzopyrano[3,4-c]pyrrol-2-yl]butyl]-7-methoxy-pyrido[3',2':4,5]thieno[3,2-d]pyrimidine-2,4(1H,3H)-dione hydrochloride [Example 33]",In Vitro Characterization (pA2) Rat Vas,α-1A adrenoreceptor [2],9.02
same,In Vitro Characterization (pA2) Rat Spleen,α-1B adrenoreceptor,7.83
same,In Vitro Characterization (pA2) Rat Aorta,α-1 Adrenoceptors,9.15
"COc1cccc2c1[C@@H]1CCN(CCCCn3c(=O)[nH]c4c(sc5ncc(Cl)nc54)c3=O)C[C@H]1CO2 [Example 97, 3-[4-((4aS,10bR)-trans-10-Methoxy-1,3,4,4a,5,10b-hexahydro-2H-[1]-benzopyrano[3,4-c]pyrido-3-yl)butyl]-8-chloro-pyrazino[2',3':4,5]thieno[3,2-d]pyrimidine-2,4(1H,3H)-dione dihydrochloride]",Kb,α-1A adrenoreceptor [2],1.55 nM
same,Kb,α-1B adrenoreceptor,17.4 nM
same,In Vitro Characterization (pA2) Dog Prostate,α-1A adrenoreceptor [1],8.6
